Columns and labels:
Activated CDK2/CyclinA = Activated CDK2/CyclinA (Homo sapiens, UniProt P24941); assay: Activated CDK2/CyclinA kinase inhibitory activity assay; type: biochemical
Description: Compounds of the invention were tested for kinase inhibitory activity using the following protocol.
The reaction is allowed to proceed for 2 to 4 hours before being stopped with an excess of ortho-phosphoric acid (5 μl at 2%). γ^33P-ATP which remains unincorporated into the histone H1 is separated from phosphorylated histone H1 on a Millipore MAPH filter plate. The wells of the MAPH plate are wetted with 0.5% orthophosphoric acid, and then the results of the reaction are filtered with a Millipore vacuum filtration unit through the wells. Following filtration, the residue is washed twice with 200 μl of 0.5% orthophosphoric acid. Once the filters have dried, 20 μl of Microscint 20 scintillant is added, and then counted on a Packard Topcount for 30 seconds.

HCT-116 cell line = assay: Anti-proliferative activity, Alamar Blue assay; type: cell-based, human; conditions: for IC50: HCT-116 human colon carcinoma, 72 hours, read-out: HCT-116 cell proliferation IC50
Description: The anti-proliferative activities of compounds of the invention can be determined by measuring the ability of the compounds to inhibition of cell growth in a number of cell lines. […] The method is based on the ability of viable cells to reduce resazurin to its fluorescent product resorufin. For each proliferation assay cells are plated onto 96 well plates and allowed to recover for 16 hours prior to the addition of inhibitor compounds for a further 72 hours. […] In the case of the non-proliferating cell assay cells are maintained at confluence for 96 hour prior to the addition of inhibitor compounds for a further 72 hours. The number of viable cells is determined by Alamar Blue assay as before. Cell lines can be obtained from the ECACC (European Collection of cell Cultures).

[1] = Determination of oral bioavailability; type: in vivo; conditions: BALB/c, mouse, plasma, mice, 5 mg/kg PO vs 1 mg/kg IV
Description: The oral bioavailability of the compounds of formula (I) may be determined as follows.
The test compound is administered as a solution both I.V. and orally to balb/c mice at the following dose level and dose formulations; • 1 mg/kg IV formulated in 10% DMSO/90% (2-hydroxypropyl)-β-cyclodextrin (25% w/v); and • 5 mg/kg PO formulated in 10% DMSO/20% water/70% PEG200.
At various time points after dosing, blood samples are taken in heparinised tubes and the plasma fraction is collected for analysis. The analysis is undertaken by LC-MS/MS after protein precipitation and the samples are quantified by comparison with a standard calibration line constructed for the test compound. The area under the curve (AUC) is calculated from the plasma level vs time profile by standard methods. The oral bioavailability as a percentage is calculated from the following equation: […]

[2] = test system: human tumour derived cell lines; assay: Xenograft studies, human tumour derived cell lines implanted sub-cutaneously; type: in vivo, nude mice; conditions: dosed orally
From the text: These biomarkers include suppression of phosphorylation of substrates of the cyclin dependent kinases e.g. retinoblastoma protein.

GSK3-β = target: T1, GSK3-β (Homo sapiens, UniProt P49841); assay: GSK3-B kinase inhibitory activity assay; type: biochemical; conditions: read-out: GSK3β IC50
T1 construct: purchased Upstate Discovery
T1 sequence (P49841 whole entry): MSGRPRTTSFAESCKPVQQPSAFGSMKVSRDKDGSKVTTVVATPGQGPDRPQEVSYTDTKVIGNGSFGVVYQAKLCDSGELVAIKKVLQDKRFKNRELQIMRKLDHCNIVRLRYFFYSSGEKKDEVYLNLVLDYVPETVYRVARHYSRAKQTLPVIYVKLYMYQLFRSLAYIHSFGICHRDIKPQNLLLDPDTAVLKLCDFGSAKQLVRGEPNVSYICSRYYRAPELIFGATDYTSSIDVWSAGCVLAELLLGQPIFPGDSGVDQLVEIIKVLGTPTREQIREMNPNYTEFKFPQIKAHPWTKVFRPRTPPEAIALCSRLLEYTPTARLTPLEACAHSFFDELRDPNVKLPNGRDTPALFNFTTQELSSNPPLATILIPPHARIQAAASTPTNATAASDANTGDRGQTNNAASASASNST
Description: The reaction is allowed to proceed for 3 hours (GSK3-β) before being stopped with an excess of ortho-phosphoric acid (5 μl at 2%). The filtration procedure is as for Activated CDK2/CyclinA assay above.

Row | IC50 (Activated CDK2/CyclinA) | selectivity for CDK inhibition over GSK3β (Activated CDK2/CyclinA) | IC50 (GSK3-β) | SMILES | in vitro kinase (CDK2) inhibitory activity compared to difluoro-analogue (Activated CDK2/CyclinA) | IC50 (HCT-116 cell line) | anti-proliferative potency on HCT-116 compared to difluoro-analogue (HCT-116 cell line; human colon cancer HCT-116 cell line) | bioavailability [1] | tumour biomarkers (phosphorylation of CDK substrates e.g. retinoblastoma protein) ([2]; nude mice xenografts) | tumour growth in xenografts ([2]; nude mice, sub-cutaneous xenografts)
1 | – | – | – | CS(=O)(=O)N1CCC(NC(=O)c2n[nH]cc2NC(=O)c2c(Cl)cccc2Cl)CC1 [Example 1, 4-(2,6-dichloro-benzoylamino)-1H-pyrazole-3-carboxylic acid (1-methanesulphonyl-piperidin-4-yl)-amide] | greater in vitro kinase (CDK2) inhibitory activity | 110 nM | 6-7 fold | 40 to 50% | inhibition of the tumour biomarkers | inhibition of tumour growth
2 | 2.2 nM | ~6 fold | 14 nM | CS(=O)(=O)N1CCC(NC(=O)c2n[nH]cc2NC(=O)c2c(F)cccc2F)CC1 [Example 131 of PCT/GB2004/003179] | – | 740 nM | – | – | – | –

Reference: US20080139620A1, “Pyrazole Derivatives For The Inhibition Of Cdk's And Gsk's” (ASTEX THERAPEUTICS LIMITED, priority 2005, published 2008)
